{
  "source": "paper PMC11788587",
  "about": "“Validating Low‐Dose Iohexol as a Marker for Glomerular Filtration Rate by In Vitro and In Vivo Studies” (Clinical and Translational Science, 2025)",
  "key": {"P‐glycoprotein": {"system": "P‐glycoprotein", "set-up": "method as in ref 16 Supawat et al.", "conditions": "human cancer cell lines; not statistically significant; ref 16 Supawat et al.; cited from earlier work"}, "[1]": {"system": "hOAT1, hOAT3, hOCT1, hOCT2, hMATE1, or hMATE2K", "assay": "Substrate assessments, summary across transporters", "type": "in vitro ADME, human", "from_the_text": "We characterized the inhibitory potential of iohexol on major drug transporters recommended by regulatory agencies, which were previously assessed in a clinical transporter phenotyping cocktail study. These transporters include hOAT1, hOAT3, hOCT1, hOCT2, hMATE1, hMATE2K, human organic anion transporter polypeptides (hOATP)1B1, hOATP1B3, and human multidrug resistance protein (hMDR)1. Additionally, we investigated whether iohexol is a substrate for any of the renal transporters among these, including hOAT1/3, hOCT1/2, and hMATE1/2K. Cell‐based uptake assays were used to assess the activities of hOAT1/3, hOCT1/2, hMATE1/2K, and hOATP1B1/1B3. […]\nR version 4.2.1 (R Foundation for Statistical Computing, Vienna, Austria) was used for statistical evaluations and data visualization. The data analysis approach for the in vitro study was detailed by Hsin CH et al..^1 In brief, for transport assays, the initial uptake rate was calculated by normalizing the substrate concentration to both the protein concentration and the incubation time for each dish or well. The transporter-mediated uptake rate (net uptake) was determined by performing an element-wise subtraction of uptake rates from different conditions. […] Net uptake rates were determined by subtracting the uptake rate of the control cells or vesicles from that of the transporter-expressing cells or vesicles for each pair. […]"}, "[2]": {"system": "hOAT1/3, hOCT1/2, hMATE1/2K, hOATP1B1/3, and hMDR1", "assay": "Inhibition assays, summary across all transporters", "type": "cell-based, human", "from_the_text": "We characterized the inhibitory potential of iohexol on major drug transporters recommended by regulatory agencies, which were previously assessed in a clinical transporter phenotyping cocktail study. These transporters include hOAT1, hOAT3, hOCT1, hOCT2, hMATE1, hMATE2K, human organic anion transporter polypeptides (hOATP)1B1, hOATP1B3, and human multidrug resistance protein (hMDR)1. Additionally, we investigated whether iohexol is a substrate for any of the renal transporters among these, including hOAT1/3, hOCT1/2, and hMATE1/2K. Cell‐based uptake assays were used to assess the activities of hOAT1/3, hOCT1/2, hMATE1/2K, and hOATP1B1/1B3. Inside‐out membrane vesicle uptake assays were used to evaluate the activity of hMDR1.\nTo determine the maximal inhibitory potential of iohexol, intracellular accumulation of a standard substrate was measured with and without the clinically relevant highest concentrations of iohexol. Control inhibitors were tested in each experiment.\nAccording to guidelines for assessing TDDIs after intravenous administration, the highest test concentration should be up to 50 times the unbound maximal plasma concentration (Cmax). […]\nIn all subsequent in vitro studies, control experiments were conducted to validate the results. […] Each condition, including cells or vesicles with the transporter and their respective controls, was analyzed in at least three replicates. […]"}},
  "data": [
    {"smiles": "CC(=O)N(CC(O)CO)c1c(I)c(C(=O)NCC(O)CO)c(I)c(C(=O)NCC(O)CO)c1I", "note": "(centres unmarked) [iohexol]", "values": [
      {"measurement": "Inhibitory effect on P-glycoprotein", "setting": "P‐glycoprotein", "value": "mild inhibitory effect"},
      {"measurement": "Increase in iohexol accumulation vs control cells, range of median values across transporters", "setting": "[1]; 10 μM iohexol for 10 and 30 min", "value": "−0.67 to 1.5", "unit": "pmol/mg protein"},
      {"measurement": "Substrate of the transporters (conclusion)", "setting": "[1]; in vitro", "value": "neither a substrate nor a significant inhibitor"},
      {"measurement": "Inhibitor of the transporters (conclusion)", "setting": "[2]; in vitro, 1–20 mM iohexol", "value": "neither a substrate nor a significant inhibitor"},
      {"measurement": "Inhibitory effect on transporter-mediated uptake of standard substrates", "setting": "[2]; iohexol 1 mM and 2 mM", "value": "no significant inhibitory effect"}
    ]}
  ]
}
